Laboratory results from US10278984B2, “Guanosine as an immune potentiator mediated through toll receptors” (Nitor Therapeutics, priority 2014, dated 2019).

Columns and labels:
B16 tumors = assay: Mouse melanoma model, NTR001 and cyclophosphamide; assay type: in vivo, C57BL/6 mice; settings: cyclophosphamide 100 mg/kg IP single dose
Method: Method: Cancer cells were injected subcutaneously in right flank of each mouse, 1×10^4 cells in 0.1 ml PBS with 20% Matrigel. Treatment with the NTR001 was initiated on day 6 after injection of tumor cells. Tumor volume and survival were recorded every 3-4 days.

human TLR2 = target: T1, human TLR2 (Homo sapiens, UniProt O60603); assay: TLR ligand screening: NF-κB SEAP reporter, agonist; assay type: cell-based; settings: HEK293 cells expressing TLR2; guanosine 100 uM, NTR001 10 uM, inosine 100 uM; triplicate
T1 construct: expressed in transfected cells; host or cells: HEK293
Method: (§1) Method: TLR stimulation is tested by assessing NF-κB activation in HEK293 cells expressing a given TLR. The Secreted Embryonic Alkaline Phosphatase (SEAP) reporter is under the control of a promoter inducible by the transcription factor NF-κB. This reporter gene allows the monitoring of signaling through the TLR based on the activation of NF-κB. The activity of the compounds is tested on seven different human TLRs (TLR2, 3, 4, 5, 7, 8 and 9) as a potential agonist. The compounds are evaluated at one concentration and compared to control ligands. This step is performed in triplicate.

human TLR4 = target: T2, human TLR4 (Homo sapiens, UniProt O00206+Q9Y6Y9); assay: TLR ligand screening: NF-κB SEAP reporter, agonist; assay type: cell-based; settings: HEK293 cells expressing TLR4; guanosine 100 uM, NTR001 10 uM, inosine 100 uM; triplicate
T2 construct: expressed in transfected cells; host or cells: HEK293
Method: as §1

human TLR5 = target: T3, human TLR5 (Homo sapiens, UniProt O60602); assay: TLR ligand screening: NF-κB SEAP reporter, agonist; assay type: cell-based; settings: HEK293 cells expressing TLR5; NTR001 10 uM, inosine 100 uM
T3 construct: expressed in transfected cells; host or cells: HEK293
Method: as §1

human TLR8 = target: T4, human TLR8 (Homo sapiens, UniProt Q9NR97); assay: TLR ligand screening: NF-κB SEAP reporter, agonist; assay type: cell-based; settings: HEK293 cells expressing TLR8; NTR001 10 uM, inosine 100 uM
T4 construct: expressed in transfected cells; host or cells: HEK293
T4 sequence (Q9NR97 27-1041): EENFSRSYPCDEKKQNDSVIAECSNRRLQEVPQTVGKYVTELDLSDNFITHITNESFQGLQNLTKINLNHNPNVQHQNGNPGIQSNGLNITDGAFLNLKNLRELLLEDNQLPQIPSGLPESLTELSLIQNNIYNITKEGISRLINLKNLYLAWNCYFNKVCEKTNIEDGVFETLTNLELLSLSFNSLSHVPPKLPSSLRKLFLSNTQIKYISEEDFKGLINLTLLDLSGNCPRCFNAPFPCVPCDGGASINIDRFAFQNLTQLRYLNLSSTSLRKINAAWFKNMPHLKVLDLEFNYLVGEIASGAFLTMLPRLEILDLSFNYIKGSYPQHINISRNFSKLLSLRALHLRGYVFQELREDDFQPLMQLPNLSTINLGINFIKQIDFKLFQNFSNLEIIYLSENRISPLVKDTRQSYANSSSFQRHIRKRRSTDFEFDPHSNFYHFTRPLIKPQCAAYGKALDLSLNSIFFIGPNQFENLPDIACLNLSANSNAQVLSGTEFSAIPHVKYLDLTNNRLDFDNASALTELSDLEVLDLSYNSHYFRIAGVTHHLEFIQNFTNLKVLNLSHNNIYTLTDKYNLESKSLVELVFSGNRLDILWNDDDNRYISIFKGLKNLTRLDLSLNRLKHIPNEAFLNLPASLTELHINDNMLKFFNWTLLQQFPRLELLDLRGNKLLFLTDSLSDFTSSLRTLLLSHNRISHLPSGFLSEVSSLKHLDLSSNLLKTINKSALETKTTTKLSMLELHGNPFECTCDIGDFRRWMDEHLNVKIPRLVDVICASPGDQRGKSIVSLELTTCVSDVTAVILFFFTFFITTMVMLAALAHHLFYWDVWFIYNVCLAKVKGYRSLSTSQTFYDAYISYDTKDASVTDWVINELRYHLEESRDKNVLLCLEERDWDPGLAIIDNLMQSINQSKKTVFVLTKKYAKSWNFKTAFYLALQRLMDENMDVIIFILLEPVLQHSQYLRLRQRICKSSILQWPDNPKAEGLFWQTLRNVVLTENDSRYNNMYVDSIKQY
Method: as §1

human TLR7 = target: T5, human TLR7 (Homo sapiens, UniProt Q9NYK1); assay: TLR ligand screening: NF-κB SEAP reporter, agonist; assay type: cell-based; settings: HEK293 cells expressing TLR7; NTR001 10 uM, inosine 100 uM
T5 construct: expressed in transfected cells; host or cells: HEK293
T5 sequence (Q9NYK1 27-1049): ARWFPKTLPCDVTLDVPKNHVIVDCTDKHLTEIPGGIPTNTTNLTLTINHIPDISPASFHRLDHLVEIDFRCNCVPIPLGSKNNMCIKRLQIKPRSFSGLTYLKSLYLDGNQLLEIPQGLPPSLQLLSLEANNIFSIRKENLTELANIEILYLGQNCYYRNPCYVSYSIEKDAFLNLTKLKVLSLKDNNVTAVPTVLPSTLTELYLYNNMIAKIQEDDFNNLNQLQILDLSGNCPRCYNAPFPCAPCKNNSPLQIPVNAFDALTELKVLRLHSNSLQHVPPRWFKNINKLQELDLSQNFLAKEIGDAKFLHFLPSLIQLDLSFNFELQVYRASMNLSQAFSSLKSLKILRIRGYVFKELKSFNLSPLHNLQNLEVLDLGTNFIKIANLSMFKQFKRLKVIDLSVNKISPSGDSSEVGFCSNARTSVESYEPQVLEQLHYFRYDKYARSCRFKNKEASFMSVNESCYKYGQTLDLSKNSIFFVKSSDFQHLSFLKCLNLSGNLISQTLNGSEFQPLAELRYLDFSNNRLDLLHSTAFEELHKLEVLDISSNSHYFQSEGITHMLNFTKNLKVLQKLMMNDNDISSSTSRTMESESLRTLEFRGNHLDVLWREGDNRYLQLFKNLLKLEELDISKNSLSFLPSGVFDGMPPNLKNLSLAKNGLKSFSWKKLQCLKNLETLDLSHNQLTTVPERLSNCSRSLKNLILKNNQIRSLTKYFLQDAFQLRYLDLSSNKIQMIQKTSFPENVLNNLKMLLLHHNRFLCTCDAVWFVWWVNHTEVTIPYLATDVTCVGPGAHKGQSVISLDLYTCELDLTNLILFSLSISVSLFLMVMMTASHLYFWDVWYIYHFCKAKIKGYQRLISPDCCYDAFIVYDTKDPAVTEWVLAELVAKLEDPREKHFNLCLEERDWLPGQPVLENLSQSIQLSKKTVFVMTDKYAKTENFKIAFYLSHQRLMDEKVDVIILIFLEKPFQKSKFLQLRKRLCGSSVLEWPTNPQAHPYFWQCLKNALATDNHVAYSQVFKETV
Method: as §1

human TLR9 = target: T6, human TLR9 (Homo sapiens, UniProt Q9NR96); assay: TLR ligand screening: NF-κB SEAP reporter, agonist; assay type: cell-based; settings: HEK293 cells expressing TLR9; NTR001 10 uM, inosine 100 uM
T6 construct: expressed in transfected cells; host or cells: HEK293
T6 sequence (Q9NR96 26-1032): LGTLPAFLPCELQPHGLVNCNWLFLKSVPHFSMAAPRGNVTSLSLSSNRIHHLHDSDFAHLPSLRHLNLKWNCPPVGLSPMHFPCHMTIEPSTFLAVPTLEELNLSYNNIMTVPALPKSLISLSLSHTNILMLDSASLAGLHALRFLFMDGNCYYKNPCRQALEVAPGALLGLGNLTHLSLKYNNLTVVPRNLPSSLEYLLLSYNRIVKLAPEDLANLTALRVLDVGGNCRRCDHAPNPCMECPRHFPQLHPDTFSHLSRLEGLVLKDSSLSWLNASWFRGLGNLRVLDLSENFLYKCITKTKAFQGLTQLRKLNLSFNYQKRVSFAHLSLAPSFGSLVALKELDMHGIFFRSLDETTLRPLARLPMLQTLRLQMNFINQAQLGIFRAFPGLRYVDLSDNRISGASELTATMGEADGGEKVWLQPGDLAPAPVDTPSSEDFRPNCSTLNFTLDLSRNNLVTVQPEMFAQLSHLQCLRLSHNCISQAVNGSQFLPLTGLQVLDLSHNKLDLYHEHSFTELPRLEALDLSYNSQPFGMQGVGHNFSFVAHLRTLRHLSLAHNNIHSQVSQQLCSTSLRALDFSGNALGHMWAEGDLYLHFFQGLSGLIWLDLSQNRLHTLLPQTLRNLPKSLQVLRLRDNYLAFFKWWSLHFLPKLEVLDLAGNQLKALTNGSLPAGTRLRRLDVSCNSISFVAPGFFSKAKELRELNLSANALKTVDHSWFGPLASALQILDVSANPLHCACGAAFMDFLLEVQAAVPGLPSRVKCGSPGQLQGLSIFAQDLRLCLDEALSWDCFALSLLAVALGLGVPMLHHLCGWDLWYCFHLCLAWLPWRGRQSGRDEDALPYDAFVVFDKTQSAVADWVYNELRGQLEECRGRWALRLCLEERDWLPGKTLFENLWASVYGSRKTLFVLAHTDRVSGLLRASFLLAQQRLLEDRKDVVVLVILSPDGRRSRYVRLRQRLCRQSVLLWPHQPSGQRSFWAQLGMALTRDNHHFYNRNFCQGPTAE
Method: as §1

human TLR3 = target: T7, human TLR3 (Homo sapiens, UniProt O15455); assay: TLR ligand screening: NF-κB SEAP reporter, agonist; assay type: cell-based; settings: HEK293 cells expressing TLR3; NTR001 10 uM, inosine 100 uM
T7 construct: expressed in transfected cells; host or cells: HEK293
T7 sequence (O15455 24-904): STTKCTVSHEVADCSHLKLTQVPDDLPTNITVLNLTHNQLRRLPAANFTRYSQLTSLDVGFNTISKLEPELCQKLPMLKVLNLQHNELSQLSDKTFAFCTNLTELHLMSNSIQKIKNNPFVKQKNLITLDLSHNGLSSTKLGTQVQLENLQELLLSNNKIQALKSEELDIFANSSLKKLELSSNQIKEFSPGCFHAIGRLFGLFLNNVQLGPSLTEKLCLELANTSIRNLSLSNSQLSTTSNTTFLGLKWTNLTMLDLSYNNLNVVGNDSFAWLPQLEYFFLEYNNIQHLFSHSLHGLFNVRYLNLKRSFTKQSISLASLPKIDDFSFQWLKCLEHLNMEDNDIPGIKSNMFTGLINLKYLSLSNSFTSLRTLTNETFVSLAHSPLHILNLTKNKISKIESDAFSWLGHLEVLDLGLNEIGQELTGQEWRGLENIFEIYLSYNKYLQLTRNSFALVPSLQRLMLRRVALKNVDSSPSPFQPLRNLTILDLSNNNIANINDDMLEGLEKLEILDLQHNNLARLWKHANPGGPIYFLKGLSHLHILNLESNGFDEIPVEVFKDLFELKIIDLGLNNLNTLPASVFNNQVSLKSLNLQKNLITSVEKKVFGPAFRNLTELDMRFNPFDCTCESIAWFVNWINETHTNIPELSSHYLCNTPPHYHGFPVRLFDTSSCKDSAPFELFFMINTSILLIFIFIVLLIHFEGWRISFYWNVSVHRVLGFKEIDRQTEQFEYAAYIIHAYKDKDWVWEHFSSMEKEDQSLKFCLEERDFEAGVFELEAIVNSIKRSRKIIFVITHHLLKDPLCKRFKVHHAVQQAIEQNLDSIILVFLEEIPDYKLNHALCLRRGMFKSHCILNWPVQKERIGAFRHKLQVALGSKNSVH
Method: as §1

T1 sequence (O60603 21-784): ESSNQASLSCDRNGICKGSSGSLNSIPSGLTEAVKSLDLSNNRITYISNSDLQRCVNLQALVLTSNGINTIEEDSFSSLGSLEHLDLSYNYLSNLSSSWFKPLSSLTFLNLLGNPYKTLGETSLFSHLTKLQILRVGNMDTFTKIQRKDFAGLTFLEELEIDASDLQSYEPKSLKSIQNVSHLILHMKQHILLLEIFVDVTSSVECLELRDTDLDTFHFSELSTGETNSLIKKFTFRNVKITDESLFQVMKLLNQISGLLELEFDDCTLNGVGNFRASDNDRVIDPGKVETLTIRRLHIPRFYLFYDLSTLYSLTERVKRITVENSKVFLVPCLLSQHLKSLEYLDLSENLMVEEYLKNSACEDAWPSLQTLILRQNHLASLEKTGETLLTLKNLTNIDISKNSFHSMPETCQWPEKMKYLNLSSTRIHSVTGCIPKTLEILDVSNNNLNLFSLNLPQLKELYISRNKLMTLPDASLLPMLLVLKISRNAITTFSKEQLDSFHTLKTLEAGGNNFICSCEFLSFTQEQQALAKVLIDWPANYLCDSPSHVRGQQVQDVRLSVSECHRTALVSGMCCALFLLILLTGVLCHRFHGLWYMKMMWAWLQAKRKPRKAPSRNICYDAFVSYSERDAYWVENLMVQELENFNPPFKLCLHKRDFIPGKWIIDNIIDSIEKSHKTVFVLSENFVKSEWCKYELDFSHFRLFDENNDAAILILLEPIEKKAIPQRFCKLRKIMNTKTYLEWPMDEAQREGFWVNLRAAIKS
T2 sequence (O00206 24-839): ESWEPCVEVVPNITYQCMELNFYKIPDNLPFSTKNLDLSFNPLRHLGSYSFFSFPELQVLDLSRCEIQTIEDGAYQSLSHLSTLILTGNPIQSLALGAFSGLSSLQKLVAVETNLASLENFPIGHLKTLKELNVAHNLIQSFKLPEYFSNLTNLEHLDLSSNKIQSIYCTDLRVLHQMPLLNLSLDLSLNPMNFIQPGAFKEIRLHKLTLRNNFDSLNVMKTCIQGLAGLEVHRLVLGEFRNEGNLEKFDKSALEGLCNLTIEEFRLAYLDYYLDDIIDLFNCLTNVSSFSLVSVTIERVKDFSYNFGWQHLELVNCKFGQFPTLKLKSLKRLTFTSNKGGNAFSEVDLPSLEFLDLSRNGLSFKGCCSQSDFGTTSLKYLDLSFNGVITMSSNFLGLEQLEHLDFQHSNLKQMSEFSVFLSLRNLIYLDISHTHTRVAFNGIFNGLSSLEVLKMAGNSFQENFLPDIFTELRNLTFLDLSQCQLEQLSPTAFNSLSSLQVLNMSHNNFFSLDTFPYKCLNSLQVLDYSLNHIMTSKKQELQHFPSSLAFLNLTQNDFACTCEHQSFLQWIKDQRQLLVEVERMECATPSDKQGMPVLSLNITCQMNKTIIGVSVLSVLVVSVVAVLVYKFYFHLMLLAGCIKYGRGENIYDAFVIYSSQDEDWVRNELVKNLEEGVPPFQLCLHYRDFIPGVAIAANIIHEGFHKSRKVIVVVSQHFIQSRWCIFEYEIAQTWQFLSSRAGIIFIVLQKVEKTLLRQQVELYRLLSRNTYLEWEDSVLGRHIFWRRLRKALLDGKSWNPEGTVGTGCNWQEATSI
T2 sequence (Q9Y6Y9 17-160 limits assumed): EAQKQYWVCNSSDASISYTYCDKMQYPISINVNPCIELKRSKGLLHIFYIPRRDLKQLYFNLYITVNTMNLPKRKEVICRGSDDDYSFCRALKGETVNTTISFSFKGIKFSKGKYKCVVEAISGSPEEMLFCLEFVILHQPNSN
T3 sequence (O60602 21-858): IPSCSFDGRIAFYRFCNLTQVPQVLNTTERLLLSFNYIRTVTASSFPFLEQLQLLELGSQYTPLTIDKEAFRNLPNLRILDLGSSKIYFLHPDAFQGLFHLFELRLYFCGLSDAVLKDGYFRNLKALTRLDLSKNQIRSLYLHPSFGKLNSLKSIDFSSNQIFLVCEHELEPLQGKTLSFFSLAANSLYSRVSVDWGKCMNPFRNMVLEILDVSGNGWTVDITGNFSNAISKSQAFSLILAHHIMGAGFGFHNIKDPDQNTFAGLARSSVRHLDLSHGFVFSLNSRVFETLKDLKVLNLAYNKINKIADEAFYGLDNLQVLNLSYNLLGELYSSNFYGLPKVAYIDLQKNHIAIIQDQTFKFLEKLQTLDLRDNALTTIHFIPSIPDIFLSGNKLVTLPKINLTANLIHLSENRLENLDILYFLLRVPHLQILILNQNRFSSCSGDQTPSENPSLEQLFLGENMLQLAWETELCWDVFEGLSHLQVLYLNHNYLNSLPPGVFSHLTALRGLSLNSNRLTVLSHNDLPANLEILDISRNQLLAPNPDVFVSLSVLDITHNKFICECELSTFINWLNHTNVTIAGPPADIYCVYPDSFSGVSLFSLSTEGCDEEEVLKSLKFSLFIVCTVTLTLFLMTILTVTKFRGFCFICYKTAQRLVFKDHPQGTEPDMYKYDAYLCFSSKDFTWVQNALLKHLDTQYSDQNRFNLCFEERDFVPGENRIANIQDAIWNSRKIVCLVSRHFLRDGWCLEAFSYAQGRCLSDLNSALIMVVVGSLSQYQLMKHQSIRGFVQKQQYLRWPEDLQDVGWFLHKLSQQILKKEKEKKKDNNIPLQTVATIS

Row | Structure (SMILES) | survival (B16 tumors) [%] | stimulatory effect on human TLR2 (NF-κB activation) (human TLR2) | stimulatory effect on human TLR4 (NF-κB activation) (human TLR4) | stimulatory effect on human TLR5 (NF-κB activation) (human TLR5) | stimulatory effect on human TLR8 (NF-κB activation) (human TLR8) | stimulatory effect on human TLR7 (NF-κB activation) (human TLR7) | stimulatory effect on human TLR9 (NF-κB activation) (human TLR9) | stimulatory effect on human TLR3 (NF-κB activation) (human TLR3)
1 | O=P1(N(CCCl)CCCl)NCCCO1 (stereo not shown) [Cyclcophosphamide, Cyclophosphamide] | 30 |  |  |  |  |  |  | 
2 | Nc1nc2c(ncn2[C@@H]2O[C@H](CO)[C@@H](O)[C@H]2O)c(=O)[nH]1 [Guansoine, guanosine] |  | significant stimulatory effect | significant stimulatory effect |  |  |  |  | 
3 | OC[C@H]1O[C@@H](n2cnc3c(O)ncnc32)[C@H](O)[C@@H]1O [Inosine] |  | do not directly exhibit a stimulatory effect | do not directly exhibit a stimulatory effect | do not directly exhibit a stimulatory effect | do not directly exhibit a stimulatory effect | do not directly exhibit a stimulatory effect | do not directly exhibit a stimulatory effect | do not directly exhibit a stimulatory effect
